Here are results for 14 compounds from patent US5955501A, “Protein kinase C modulators O” (priority 1995, dated 1999).

In assay [1] the test system is diacylglycerol/phorboid-type binding sites in mouse skin and in purified preparations of protein kinase C isotypes. The following applies: Dunn and Blumberg; Ryves et al. 1991; cited from earlier work.
In assay [2] the test system is HL-60 promyelocytic leukemia cells. As to the kind of experiment: Anti-leukemic activity: MTT cell growth assay. The format is cell-based. The following applies: Homo sapiens, HL-60, 192 h, 8 days incubation, read-out: IC50 (drug concentration which leads to 50% of cells per well compared to control cultures). How it is done: HL-60 promyelocytic leukemia cells were cultured in RPMI 1640 medium supplemented with 10% fetal bovine serum. Cells (7,500) were seeded into 96-well microtiter plates and incubated overnight. Serial dilutions of 20-deoxy-20-(2'-hydroxyethylthio)phorbol 12-myristate 13-acetate (dissolved in DMSo and then diluted with culture medium) were added to the wells on day 1. The plates were incubated for 8 days to allow the control cultures to undergo at least 3 cell divisions. The cell growth was monitored by using the calorimetric MTT (tetrazolium) assay [Mosmann, T., J. Immunol. Meth. 65: 55-63 (1983)]. After the incubation period, the cells were washed with phosphate-buffered saline in the microtiter plate. DMSO was then added to each well and the dish was put on a shaker for 20 min. The optical density was measured at 540 nm and compared using the formula:(OD Test OD Start)/(OD Control - OD Start) x 100.

Assay [3] relates to T-24 human bladder carcinoma cells. As to the kind of experiment: Anti-cancer activity: methylene blue cell growth assay. The format is cell-based. The following applies: 5-6 days incubation, methylene blue staining, read-out: IC50 (drug concentration which leads to 50% of cells per well compared to control cultures). As for the experimental part:
T-24 human bladder carcinoma cells were cultured in Eagle's minimal essential medium supplemented with 5% fetal bovine serum. Cells (1,000) were seeded into 96-well microtiter plates and incubated overnight. Serial dilutions of 20-deoxy-20(2'-hydroxyethylthio)phorbol 12-myristate 13-acetate (dissolved in DMSO and then diluted with culture medium) were added to the wells on day 1. The plates were incubated for 5-6 days to allow the control cultures to undergo at least 3 cell divisions. After the incubation period, the cells were fixed with glutaraldehyde, washed with water and stained with 0.05% methylene blue. After washing the dye was eluted with 3% HCl. The optical density per well was measured at 665 nm and compared using the formula:(OD Test-OD Start)/(OD Control-OD Start)×100.

The test system of assay [4] is phorbol 12-myristate 13-acetate induced ear inflammation/erythema. As to the kind of experiment: Mouse ear inflammation test: inhibition of phorbol 12-myristate 13-acetate induced inflammation/erythema. The format is in vivo, mice. As for the experimental part: Method: A stock solution of 300 pmoles of the standard inflammatory compound phorbol 12-myristate 13-acetate per 5 μL acetone was prepared. This solution was used to prepare four-fold dilutions of 20-deoxy-20-(2'-hydroxyethylthio)phorbol 12-myristate 13-acetate, prepared as in Example 3, covering concentrations of the latter ranging from 4 to 64,000 pmoles per 5 μL.

The subject of another assay is diacylglycerol site. Put plainly: Diacylglycerol site binding activity (test not described at the place).
Assay [5] is described as follows: Anti-viral properties (test not described at the place).
Assay [6] has as its system Human RPMI-7272 melanoma cells. As to the kind of experiment: Anti-melanoma activity: inhibition of cell doublings. The format is cell-based. The settings on record: 72 h of exposure, read-out: ID50 (concentration of drug required to inhibit cell doublings by 50%). How it is done:
Human RPMI-7272 melanoma cells were grown in the standard culture medium under normal incubation conditions. On day 1 the cells were cultured in the absence (control) or presence of graded concentrations (3-100 μg/ml) of 20-deoxy-20-(2'-hydroxyethylthio)phorbol 12-myristate 13-acetate in separate tubes. On day 4 after 72 h of exposure the number of cells in each tube was measured and the number of cell doublings determined. The drug treated tubes were compared to the control tube.

For the next assay, the system named is HIV. As to the kind of experiment: Anti-HIV activity in HIV-infected human peripheral blood lymphocytes (supernatant viral RNA and p24 core protein). It counts as cell-based. The following applies: Human immunodeficiency virus 1, Lymphocyte; from dose-response curves or by estimation from one or more experimental drug concentrations; read-out: anti-HIV ED50 for RNA. As for the experimental part:
Human peripheral blood lymphocytes were isolated from the buffy coat fractions of blood donations. The lymphocytes were then stimulated with 5 μg/ml of phytohemagglutinin for 48 hours. Prior to infection with HIV, the lymphocytes were washed and resuspended in mitogen-free medium. On day 0 the cells were infected with HIV and were cultured for four days in the presence or absence of graded concentrations of 20-deoxy-20-chlorophorbol 12,13-bis[(2',4'-difluorophenyl)acetate]. On days 3 and 4 the supernatant levels of total viral RNA and viral core protein p24 were determined at each drug concentration and dose-response curves were used to determine the concentration of drug giving 50% inhibition of production of viral RNA and of p24 core protein. At four days these ED50 values were less than 100 pM for both RNA and p24.
In a manner similar to Example 111, the anti-HIV ED50 values for RNA [drug concentration is in brackets] for the following diterpenoid compounds were determined from dose-response curves or by estimation from one or more experimental drug concentrations.
In a manner similar to Example 111, the anti-HIV ED50 values for RNA [drug concentration is in brackets] for the following indolactam-type compounds were determined from dose-response curves or by estimation from one or more experimental drug concentrations, data giving percent inhibition of viral RNA production at selected concentrations appear in parentheses:
In a manner similar to Example 111, the anti-HIV ED50 values for RNA [drug concentration is in brackets] for the following diacylglycero-type compounds were determined from dose-response curves or by estimation from one or more experimental drug concentrations; data giving percent inhibition of viral RNA production at selected concentrations appear in parentheses: […]

For `CC1=C[C@H]2[C@@]3(O)[C@H](C)C[C@]4(OC(=O)C(C)C)[C@H]([C@@H]3C=C(CO)C[C@]2(O)C1=O)C4(C)C` [12-deoxyphorbol 13-isobutyrate], in assay [1], the “selectivity factor in dissociation constant among the different binding sites” value was 10-1000.

Take `CC1=C[C@H]2[C@@]3(O)[C@H](C)C[C@]4(OC(=O)Cc5ccccc5)[C@H]([C@@H]3C=C(CO)C[C@]2(O)C1=O)C4(C)C` [12-deoxyphorbol 13-phenylacetate]: the “selectivity factor in dissociation constant among the different binding sites” value in assay [1] is listed as 10-1000.

Take `C=C1C[C@]2(O)C(=O)C(C)=C[C@H]2[C@@]2(O)[C@H](C)[C@@H](OC(=O)CCCCCCCCCCCCC)[C@]3(OC(C)=O)[C@H]([C@@H]2C1CO)C3(C)C` (stereo partly drawn) [12-β-myristoyloxy-13-acetoxy-4,9-dihydroxy-7-hydroxymethyl-1,6(20)-tigliadien-3-one]: the values for the IC50 in assay [2] and in assay [3] were 5.2 µM and 5.5 µM, respectively. Moreover, the anti-inflammatory activity result in assay [4] (general statement in the description, test not named there) is on record as “good anti-inflammatory activity”.

With `CCCCCCCCCCCCCC(=O)O[C@@H]1[C@@H](C)[C@@]2(O)[C@@H](C=C(CCC3=C[C@H]4[C@@H]5C(C)(C)[C@]5(OC(C)=O)[C@H](OC(=O)CCCCCCCCCCCCC)[C@@H](C)[C@]4(O)[C@@H]4C=C(C)C(=O)[C@@]4(O)C3)C[C@]3(O)C(=O)C(C)=C[C@@H]23)[C@@H]2C(C)(C)[C@]12OC(C)=O` [20-Deoxy-20-[20'-deoxyphorbol-20'-yl(12'-myristate 13'-acetate)]phorbol 12-Myristate 13-Acetate], the “diacylglycerol site binding activity” value in the assay on diacylglycerol site was “still exhibits diacylglycerol site binding activity”. In addition, the anti-viral properties result in assay [5] was “anti-viral properties”.

On to `CCCCCCCCCCCCCC(=O)O[C@@H]1[C@@H](C)[C@@]2(O)[C@@H](C=C(CSCCO)C[C@]3(O)C(=O)C(C)=C[C@@H]23)[C@@H]2C(C)(C)[C@]12OC(C)=O` [20-deoxy-20-(2'-hydroxyethylthio)phorbol 12-myristate 13-acetate], for which the figures for the IC50 in assay [2], in assay [6] and in assay [3] were 5.4 µM, 42 µM and 13 µM, respectively. In addition, in assay [4] (applied with 300 pmoles phorbol 12-myristate 13-acetate per 5 μL acetone to inside of right ear, observed 1 to 48 hours), the “inhibition of phorbol 12-myristate 13-acetate induced ear inflammation/erythema” value was “Inhibition of the phorbol 12-myristate 13-acetate induced inflammation was observed at the medium and higher concentrations”.

On to `CC1=C[C@H]2[C@@]3(O)[C@H](C)[C@@H](OC(=O)Cc4c(F)c(F)c(F)c(F)c4F)[C@]4(OC(=O)Cc5c(F)c(F)c(F)c(F)c5F)[C@H]([C@@H]3C=C(CCl)C[C@]2(O)C1=O)C4(C)C` [20-deoxy-20-chlorophorbol 12,13-bis[(pentafluorophenyl)acetate]], for which, in the assay on HIV, the EC50 is under 0.001 µM.

`CCCCCCCCCCCCCC(=O)O[C@@H]1[C@@H](C)[C@@]2(O)[C@@H](C=C(CC#N)C[C@]3(O)C(=O)C(C)=C[C@@H]23)[C@@H]2C(C)(C)[C@]12OC(C)=O` [20-deoxy-20-cyanophorbol 12-myristate 13-acetate]: the IC50 in assay [3] was determined as 2 µM. Moreover, the EC50 in the assay with HIV is 1.5 µM.

Turning to `CC1=C[C@H]2[C@@]3(O)[C@H](C)[C@@H](OC(=O)Cc4c(F)c(F)c(F)c(F)c4F)[C@]4(OC(=O)Cc5c(F)c(F)c(F)c(F)c5F)[C@H]([C@@H]3C=C(CF)C[C@]2(O)C1=O)C4(C)C` [20-deoxy-20-fluorophorbol 12,13-bis[(pentafluorophenyl)acetate]], in the assay on HIV, the EC50 was 0.001 µM.

On to `CC1=C[C@H]2[C@@]3(O)[C@H](C)[C@@H](OC(=O)Cc4ccc(F)cc4F)[C@]4(OC(=O)Cc5ccc(F)cc5F)[C@H]([C@@H]3C=C(C=NO)C[C@]2(O)C1=O)C4(C)C` [20-deoxy-20-hydroximinophorbol 12,13-bis[(2',4'-difluorophenyl)acetate]], for which, in the assay on HIV, the EC50 is 5.5 µM.

`CCCSCC1=C[C@H]2[C@@H]3C(C)(C)[C@]3(OC(=O)Cc3ccc(F)cc3F)[C@H](OC(=O)Cc3ccc(F)cc3F)[C@@H](C)[C@]2(O)[C@@H]2C=C(C)C(=O)[C@@]2(O)C1` [20-deoxy-20-propylthiophorbol 12,13-bis[(2',4'-difluorophenyl)acetate]]: in the assay on HIV, the EC50 was 0.01 µM.

For `CCCC(=O)O[C@@H]1[C@@H](C)[C@@]2(O)[C@@H](C=C(CO)C[C@]3(O)C(=O)C(C)=C[C@@H]23)[C@@H]2C(C)(C)[C@]12OC(=O)CCC` [phorbol 12,13-dibutyrate], the “selectivity factor in dissociation constant among the different binding sites” value in assay [1] was 10-1000.

For `CCCCCCCCCCCCCC(=O)O[C@@H]1[C@@H](C)[C@@]2(O)[C@@H](C=C(COC(=O)Nc3ccc(F)c([N+](=O)[O-])c3)C[C@]3(O)C(=O)C(C)=C[C@@H]23)[C@@H]2C(C)(C)[C@]12OC(C)=O` [phorbol 12-myristate 13-acetate 20-(4'-fluoro-3'-nitrophenyl)carbamate], in the assay on HIV, the EC50 is 4 µM.

On to `CCCCCCCCCCCCCC(=O)O[C@@H]1[C@@H](C)[C@@]2(O)[C@@H](C=C(COC(=O)NC)C[C@]3(O)C(=O)C(C)=C[C@@H]23)[C@@H]2C(C)(C)[C@]12OC(C)=O` [phorbol 12-myristate 13-acetate 20-methylcarbamate], for which the IC50 was 2.6 µM in assay [2] and 6.3 µM in assay [3].

With thymeleatoxin, the “selectivity factor in dissociation constant among the different binding sites” value in assay [1] is on record as 10-1000.
